Data on 19 compounds can be found in ChEMBL document CHEMBL4251560, “The Novel 4-Phenyl-2-Phenoxyacetamide Thiazoles modulates the tumor hypoxia leading to the crackdown of neoangiogenesis and evoking the cell death” (Eur J Med Chem, 2018).

What all share (assay type): functional, cell-based
The subject of experiment [1] is Ehrlich. Put plainly: Cytotoxicity against mouse EAC cells assessed as reduction in cell viability after 48 hrs by trypan blue exclusion assay.
Experiment [2] relates to MCF7. Kind of experiment: Cytotoxicity against human MCF7 cells assessed as reduction in cell viability after 48 hrs by MTT assay. The conditions noted are these: MCF7, 48 h.
Experiment [3] deals with A549. Kind of experiment: Cytotoxicity against human A549 cells assessed as reduction in cell viability after 48 hrs by MTT assay. The conditions noted are these: A549, 48 h.
Experiment [4] relates to A549. Kind of experiment: Cytotoxicity against human A549 cells assessed as reduction in cell viability after 48 hrs by trypan blue exclusion assay. Particulars: A549, 48 h.
The test system of experiment [5] is MCF7. Kind of experiment: Cytotoxicity against human MCF7 cells assessed as reduction in cell viability after 48 hrs by trypan blue exclusion assay. The conditions noted are these: MCF7, 48 h.
Experiment [6] relates to Ehrlich. Kind of experiment: Cytotoxicity against mouse EAC cells assessed as reduction in cell viability after 48 hrs by MTT assay.
Experiment [7] is described as follows: Cytotoxicity against mouse DLA cells assessed as reduction in cell viability after 48 hrs by trypan blue exclusion assay.
The test system of experiment [8] is MDA-MB-468. Put plainly: Cytotoxicity against human MDA-MB-468 cells assessed as reduction in cell viability after 48 hrs by MTT assay. The conditions noted are these: MDA-MB-468, 48 h.
Experiment [9] deals with MDA-MB-468. Put plainly: Cytotoxicity against human MDA-MB-468 cells assessed as reduction in cell viability after 48 hrs by trypan blue exclusion assay. The conditions noted are these: MDA-MB-468, 48 h.
A short description of experiment [10]: Cytotoxicity against mouse DLA cells assessed as reduction in cell viability after 48 hrs by MTT assay.

With `O=C(COc1ccccc1)Nc1nc(-c2ccc(Br)cc2)cs1`, the IC50 in the experiment on Ehrlich [1] came to 37.1 µM; in the experiment on MCF7 [2] it was 54.3 µM; with A549 [3], 52.9 µM; in the experiment on A549 [4] it was 52.2 µM; with MCF7 [5] it was 54 µM; with Ehrlich [6], 37.2 µM. Further, the IC50 amounted to 55.9 µM in experiment [7], 37.2 µM in the experiment with MDA-MB-468 [8], 37.1 µM in the experiment with MDA-MB-468 [9] and 60.3 µM in experiment [10].
Take `Cc1ccc(-c2csc(NC(=O)COc3ccc(Br)cc3)n2)cc1`: the IC50 in the experiment on Ehrlich [1] worked out at 48.5 µM; in the experiment with MCF7 [2], 39.1 µM; in the experiment on A549 [3] it was 37.2 µM; in the experiment on A549 [4] it was 37.1 µM; with MCF7 [5], 39 µM; in the experiment with Ehrlich [6] it was 48.2 µM. The IC50 in [7] amounted to 51.7 µM; in the experiment on MDA-MB-468 [8], 40.9 µM; in the experiment with MDA-MB-468 [9] it was 40.1 µM; in experiment [10], 52.1 µM.
With `O=C(COc1ccc(F)cc1)Nc1nc(-c2ccc(Br)cc2)cs1`, the IC50 turned out to be 45.3 µM in the experiment with Ehrlich [1]; 55.5 µM with MCF7 [2]; 52.1 µM in the experiment on A549 [3]; 51.7 µM in the experiment on A549 [4]; 56.8 µM in the experiment with MCF7 [5]; 45.5 µM in the experiment with Ehrlich [6]. For the same compound, the half-inhibitory concentration (IC50) stood at 43.5 µM in experiment [7], 52.1 µM in the experiment with MDA-MB-468 [8], 51.7 µM in the experiment on MDA-MB-468 [9] and 42.5 µM in experiment [10].
With `Cc1ccccc1OCC(=O)Nc1nc(-c2ccc(Cl)cc2)cs1`, the IC50 with Ehrlich [1] was 63.1 µM; in the experiment on MCF7 [2], 62.2 µM; in the experiment with A549 [3], 64.9 µM; in the experiment with A549 [4], 64.8 µM; in the experiment with MCF7 [5], 62.8 µM; in the experiment on Ehrlich [6], 62.3 µM. The IC50 is 49 µM in experiment [7], 40.1 µM with MDA-MB-468 [8], 52.1 µM in the experiment on MDA-MB-468 [9] and 49.2 µM in [10].
For the compound `O=C(COc1ccc(Br)cc1)Nc1nc(-c2ccc(Cl)cc2)cs1`, the IC50 worked out at 51.7 µM with Ehrlich [1]; 52.4 µM with MCF7 [2]; 54.4 µM in the experiment with A549 [3]; 54.9 µM with A549 [4]; 52.1 µM in the experiment with MCF7 [5]; 52.1 µM in the experiment on Ehrlich [6]. Further, the IC50 in experiment [7] was 40.1 µM; in the experiment on MDA-MB-468 [8], 45.1 µM; with MDA-MB-468 [9], 50.9 µM; in experiment [10] it was 40.6 µM.
Regarding `CC(C)c1ccccc1OCC(=O)Nc1nc(-c2ccc(Br)cc2)cs1`, the half-inhibitory concentration (IC50) with Ehrlich [1] stood at 50.1 µM; with MCF7 [2] it was 42.5 µM; in the experiment on A549 [3], 48.2 µM; in the experiment on A549 [4], 48.5 µM; in the experiment on MCF7 [5], 43.5 µM; in the experiment with Ehrlich [6] it was 50.9 µM. For the same compound, the half-inhibitory concentration (IC50) in experiment [7] turned out to be 45.1 µM; with MDA-MB-468 [8] it was 50.9 µM; in the experiment with MDA-MB-468 [9] it was 50.1 µM; in experiment [10] it was 45.7 µM.
Regarding `Cc1ccc(-c2csc(NC(=O)COc3ccccc3C)n2)cc1`, the IC50 in the experiment with Ehrlich [1] was 54.9 µM; with MCF7 [2], 53.5 µM; in the experiment with A549 [3], 50.9 µM; in the experiment with A549 [4], 50.1 µM; in the experiment on MCF7 [5], 53.2 µM; with Ehrlich [6], 54.4 µM. In addition, the IC50 in experiment [7] stood at 46.6 µM; with MDA-MB-468 [8], 52.1 µM; with MDA-MB-468 [9], 51.7 µM; in experiment [10] it was 46.5 µM.
On to `Cc1ccc(OCC(=O)Nc2nc(-c3ccc(Cl)cc3)cs2)cc1`, for which the half-maximal inhibitory concentration (IC50) stood at 40.1 µM with Ehrlich [1]; 48.7 µM in the experiment with MCF7 [2]; 45.7 µM in the experiment with A549 [3]; 44.8 µM in the experiment on A549 [4]; 48.8 µM in the experiment with MCF7 [5]; 40.6 µM in the experiment on Ehrlich [6]. For the same compound, the IC50 in experiment [7] worked out at 52.1 µM; in the experiment with MDA-MB-468 [8] it was 50.9 µM; in the experiment on MDA-MB-468 [9], 50.1 µM; in [10], 52.9 µM.
Consider `Cc1cc(Cl)ccc1OCC(=O)Nc1nc(-c2ccc(Cl)cc2)cs1`, for which the IC50 in the experiment with Ehrlich [1] was found to be 52.1 µM; in the experiment on MCF7 [2], 40.6 µM; with A549 [3] it was 43.4 µM; in the experiment with A549 [4] it was 43.1 µM; with MCF7 [5] it was 40.1 µM; with Ehrlich [6] it was 52.4 µM. Moreover, the half-maximal inhibitory concentration (IC50) in experiment [7] came to 40.6 µM; in the experiment on MDA-MB-468 [8], 52.4 µM; in the experiment with MDA-MB-468 [9] it was 52.1 µM; in experiment [10], 40.1 µM.
`Cc1ccc(-c2csc(NC(=O)COc3ccccc3C(C)C)n2)cc1`: the IC50 came out at 42.8 µM in the experiment on Ehrlich [1]; 49.2 µM with MCF7 [2]; 44.2 µM in the experiment with A549 [3]; 44.7 µM in the experiment on A549 [4]; 49 µM with MCF7 [5]; 42.9 µM with Ehrlich [6]. Besides, the IC50 in [7] worked out at 52.2 µM; with MDA-MB-468 [8], 55.5 µM; with MDA-MB-468 [9] it was 56.8 µM; in experiment [10] it was 52.9 µM.
For the compound `Cc1ccc(OCC(=O)Nc2nc(-c3ccc(Br)cc3)cs2)cc1`, the 50% inhibitory concentration (IC50) in the experiment with Ehrlich [1] is 55.3 µM; in the experiment with MCF7 [2], 52.2 µM; in the experiment with A549 [3], 58.8 µM; in the experiment with A549 [4], 58.6 µM; in the experiment on MCF7 [5], 52.4 µM; with Ehrlich [6] it was 55.8 µM. Also, the 50% inhibitory concentration (IC50) worked out at 43.5 µM in [7], 44.9 µM in the experiment on MDA-MB-468 [8], 44.5 µM in the experiment on MDA-MB-468 [9] and 42.5 µM in experiment [10].
On to `O=C(COc1ccc(F)cc1F)Nc1nc(-c2ccc(Cl)cc2)cs1`, for which the IC50 in the experiment with Ehrlich [1] was 26.5 µM; in the experiment with MCF7 [2] it was 25.8 µM; in the experiment with A549 [3], 26.5 µM; with A549 [4], 26.3 µM; with MCF7 [5] it was 25.3 µM; in the experiment with Ehrlich [6] it was 26.2 µM. Further, the half-maximal inhibitory concentration (IC50) in experiment [7] was 26.4 µM; in the experiment on MDA-MB-468 [8], 32.9 µM; in the experiment on MDA-MB-468 [9] it was 32.3 µM; in [10], 26.1 µM.
With `O=C(COc1ccccc1)Nc1nc(-c2ccc(Cl)cc2)cs1`, the IC50 turned out to be 56.8 µM with Ehrlich [1]; 60.3 µM in the experiment with MCF7 [2]; 42.9 µM in the experiment with A549 [3]; 42.8 µM in the experiment on A549 [4]; 55.9 µM with MCF7 [5]; 55.5 µM with Ehrlich [6]. In addition, the IC50 in experiment [7] turned out to be 53.2 µM; in the experiment with MDA-MB-468 [8], 55.3 µM; in the experiment with MDA-MB-468 [9], 44.2 µM; in experiment [10], 53.5 µM.
Consider `Cc1ccc(-c2csc(NC(=O)COc3ccc(Cl)c(C)c3)n2)cc1`, for which the IC50 was 59.1 µM in the experiment on Ehrlich [1]; 40.9 µM in the experiment with MCF7 [2]; 44.9 µM in the experiment with A549 [3]; 44.5 µM in the experiment on A549 [4]; 41.5 µM in the experiment on MCF7 [5]; 58.8 µM with Ehrlich [6]. Further, the IC50 in experiment [7] was found to be 59.1 µM; with MDA-MB-468 [8] it was 54.2 µM; in the experiment on MDA-MB-468 [9], 54.7 µM; in [10], 60.3 µM.
Turning to `CC(C)c1ccccc1OCC(=O)Nc1nc(-c2ccc(Cl)cc2)cs1`, the 50% inhibitory concentration (IC50) in the experiment on Ehrlich [1] worked out at 49.8 µM; in the experiment on MCF7 [2] it was 18.7 µM; in the experiment on A549 [3], 17.8 µM; in the experiment with A549 [4], 17.1 µM; in the experiment with MCF7 [5] it was 18.1 µM; in the experiment with Ehrlich [6], 50.1 µM. Besides, the IC50 in experiment [7] was found to be 40.1 µM; in the experiment on MDA-MB-468 [8] it was 53.2 µM; with MDA-MB-468 [9], 55.5 µM; in experiment [10], 40.6 µM.
On to `O=C(COc1ccc(F)cc1F)Nc1nc(-c2ccc(Br)cc2)cs1`, for which the IC50 in the experiment on Ehrlich [1] was 44.7 µM; with MCF7 [2], 52.9 µM; in the experiment on A549 [3] it was 58.8 µM; with A549 [4] it was 59.1 µM; with MCF7 [5], 52.1 µM; with Ehrlich [6], 44.2 µM. In addition, the IC50 in experiment [7] was found to be 55.3 µM; in the experiment on MDA-MB-468 [8] it was 44.2 µM; in the experiment on MDA-MB-468 [9], 44.7 µM; in [10] it was 55.8 µM.
`Cc1ccc(-c2csc(NC(=O)COc3ccc(Cl)cc3)n2)cc1`: the IC50 with Ehrlich [1] was 42 µM; with MCF7 [2], 43.8 µM; in the experiment on A549 [3], 44 µM; with A549 [4] it was 44.7 µM; in the experiment with MCF7 [5], 43.7 µM; in the experiment on Ehrlich [6], 42.5 µM. The 50% inhibitory concentration (IC50) in experiment [7] worked out at 52.1 µM; in the experiment with MDA-MB-468 [8], 44.2 µM; in the experiment on MDA-MB-468 [9], 44.7 µM; in experiment [10], 52.4 µM.
Turning to `O=C(COc1ccc(F)cc1)Nc1nc(-c2ccc(Cl)cc2)cs1`, the IC50 in the experiment with Ehrlich [1] was 35.9 µM; in the experiment on MCF7 [2], 35.5 µM; in the experiment on A549 [3] it was 36.5 µM; in the experiment with A549 [4] it was 36.3 µM; in the experiment with MCF7 [5], 35.3 µM; with Ehrlich [6], 35.3 µM. For the same compound, the IC50 in experiment [7] came to 35.1 µM; in the experiment with MDA-MB-468 [8], 42.1 µM; in the experiment with MDA-MB-468 [9], 42.9 µM; in experiment [10], 35.9 µM.
On to `Cc1ccc(-c2csc(NC(=O)COc3ccccc3)n2)cc1`, for which the IC50 in the experiment on Ehrlich [1] was determined as 49.8 µM; with MCF7 [2], 43 µM; in the experiment with A549 [3], 41.7 µM; in the experiment on A549 [4], 41.1 µM; with MCF7 [5] it was 43 µM; with Ehrlich [6] it was 50.1 µM. In addition, the IC50 in experiment [7] came out at 51.7 µM; with MDA-MB-468 [8], 54.9 µM; in the experiment on MDA-MB-468 [9], 54.5 µM; in experiment [10], 52.1 µM.
